Measured values published in patent US7888061B2, “Method of stabilising or reactivating a creatinine sensor with a divalent manganese ion” (Radiometer Medical ApS, priority 2005, dated 2011).
Like-named read-outs stand apart in the source and are kept apart here.

Assays:
[1] = molecular target: T1, Creatinine Amidohydrolase (Creatininase) (Pseudomonas putida, UniProt P83772); details: cited from earlier work; for reactivation of the inactive apoenzyme: addition of 0.5 mM, zinc ions removed from creatininase
T1 sequence (P83772 1-260): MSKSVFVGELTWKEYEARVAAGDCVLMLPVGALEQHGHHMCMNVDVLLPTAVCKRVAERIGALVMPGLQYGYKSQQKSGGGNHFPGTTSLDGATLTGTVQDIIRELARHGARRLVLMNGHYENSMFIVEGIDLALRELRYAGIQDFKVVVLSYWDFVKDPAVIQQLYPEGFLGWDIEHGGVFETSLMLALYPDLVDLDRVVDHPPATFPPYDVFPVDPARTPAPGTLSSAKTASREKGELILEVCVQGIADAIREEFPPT

[2] = molecular target: heat-treated creatininase (Pseudomonas putida, UniProt P83772); details: enzyme assays
glucose oxidase = glucose oxidase (Aspergillus niger, UniProt P13006)
lactate oxidase = lactate oxidase (Aerococcus viridans, UniProt Q44467)
creatininase = creatininase (Pseudomonas putida, UniProt P83772)
Method: The following examples are intended to illustrate the invention without limiting the invention. In all of the examples, creatininase from Pseudomonas putida was used, obtained from Roche Diagnostics, Mannheim, Germany.
The stability of the creatinine sensor was tested by observing the sensor responses to calibration solutions containing each of the substrates creatinine and creatine.
The calibration solutions were prepared by dissolving about 200 μM creatinine in the Radiometer Calibration Solution 1 S1720 and about 200 μM creatine in the Radiometer Calibration Solution 2 S1730. These solutions were repeatedly introduced into the apparatus one after the other and sensor responses were obtained.
It is convenient to depict the relation between the creatinine sensor response to creatinine relative to the creatinine sensor response to creatine by the following ratio: R=response to creatinine/response to creatine.
If R is constant, the creatininase activity is stable. A declining value for R indicates an overall loss of creatininase activity.
The same experiment as described above was conducted with five creatinine sensors having a significant initial excess of creatininase. In FIG. 4, R is depicted for this experiment.

urease = urease (Canavalia ensiformis, UniProt P07374)
[3] = tested on: Creatinine Amidohydrolase; details: 1.0 mM solution; cited from earlier work

Sequence of urease (P07374 whole entry, looked up): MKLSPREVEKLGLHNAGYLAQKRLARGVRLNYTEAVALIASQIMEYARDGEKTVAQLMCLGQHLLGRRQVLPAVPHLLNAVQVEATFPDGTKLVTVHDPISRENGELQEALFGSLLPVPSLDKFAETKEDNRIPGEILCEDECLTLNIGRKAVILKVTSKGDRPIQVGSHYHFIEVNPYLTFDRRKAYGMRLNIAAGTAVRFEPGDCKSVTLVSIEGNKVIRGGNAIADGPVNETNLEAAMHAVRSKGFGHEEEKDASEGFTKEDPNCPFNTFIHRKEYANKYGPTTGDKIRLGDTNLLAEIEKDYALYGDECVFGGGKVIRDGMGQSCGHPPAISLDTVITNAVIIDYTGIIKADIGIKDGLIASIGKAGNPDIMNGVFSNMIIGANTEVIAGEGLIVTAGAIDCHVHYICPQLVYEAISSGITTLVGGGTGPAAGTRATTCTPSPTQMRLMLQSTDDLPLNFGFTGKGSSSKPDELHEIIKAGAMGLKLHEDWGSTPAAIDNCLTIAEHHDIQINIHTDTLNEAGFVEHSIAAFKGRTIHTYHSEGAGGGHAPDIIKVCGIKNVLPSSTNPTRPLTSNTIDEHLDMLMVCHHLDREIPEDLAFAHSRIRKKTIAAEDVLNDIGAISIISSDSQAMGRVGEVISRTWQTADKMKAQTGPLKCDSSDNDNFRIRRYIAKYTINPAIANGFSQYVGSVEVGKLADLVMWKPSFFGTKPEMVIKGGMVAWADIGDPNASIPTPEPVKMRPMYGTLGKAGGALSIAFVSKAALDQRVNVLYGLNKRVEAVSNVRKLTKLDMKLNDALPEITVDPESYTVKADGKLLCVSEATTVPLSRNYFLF
Sequence of glucose oxidase (P13006 17-605, species assumed): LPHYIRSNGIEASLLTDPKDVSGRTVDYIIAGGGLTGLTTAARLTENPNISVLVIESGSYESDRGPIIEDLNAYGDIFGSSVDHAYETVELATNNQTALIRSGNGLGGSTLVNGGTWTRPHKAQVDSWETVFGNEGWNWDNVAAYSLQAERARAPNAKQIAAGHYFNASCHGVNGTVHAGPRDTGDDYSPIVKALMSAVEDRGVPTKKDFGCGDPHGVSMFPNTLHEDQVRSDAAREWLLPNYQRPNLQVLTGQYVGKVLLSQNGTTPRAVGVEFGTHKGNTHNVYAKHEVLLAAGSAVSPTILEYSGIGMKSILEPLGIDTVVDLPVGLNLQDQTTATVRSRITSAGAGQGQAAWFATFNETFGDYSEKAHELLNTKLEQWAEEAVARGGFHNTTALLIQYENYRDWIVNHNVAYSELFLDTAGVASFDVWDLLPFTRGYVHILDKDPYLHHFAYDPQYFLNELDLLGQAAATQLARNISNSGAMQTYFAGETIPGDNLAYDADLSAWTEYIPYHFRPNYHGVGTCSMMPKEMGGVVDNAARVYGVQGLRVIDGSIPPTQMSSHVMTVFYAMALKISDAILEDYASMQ
Sequence of lactate oxidase (Q44467 whole entry, species assumed): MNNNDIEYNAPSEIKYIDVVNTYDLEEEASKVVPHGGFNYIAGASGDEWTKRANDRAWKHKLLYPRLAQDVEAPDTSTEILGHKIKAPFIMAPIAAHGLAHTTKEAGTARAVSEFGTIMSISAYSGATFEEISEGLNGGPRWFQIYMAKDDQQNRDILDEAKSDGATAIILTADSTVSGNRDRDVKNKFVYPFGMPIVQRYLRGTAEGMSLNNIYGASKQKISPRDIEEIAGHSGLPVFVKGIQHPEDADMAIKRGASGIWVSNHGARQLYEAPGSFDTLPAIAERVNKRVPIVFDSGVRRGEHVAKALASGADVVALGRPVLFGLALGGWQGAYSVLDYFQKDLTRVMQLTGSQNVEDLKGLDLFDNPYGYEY

Row | SMILES | reactivation of the inactive apoenzyme [1] | inhibition of the activity of creatininase ([1]; purified, heat-treated enzyme) | other results
1 | O=C(O)CN(CCN(CC(=O)O)CC(=O)O)CC(=O)O [EDTA, ethylenediamine tetraacetic acid] | – | – | inhibition of the activity of creatininase [1]: only slight inhibition
2 | [Fe+2] [Fe] | reactivated | inhibit slightly | –
3 | [Co+2] [Co] | reactivated | inhibit slightly | –
4 | [Ca+2] [Ca] | – | inhibit slightly | –
5 | [Zn+2] [Zn] | reactivated | inhibit slightly | –
6 | [Mn+2] [divalent manganese ion] | reactivated | inhibit slightly | effect on heat-treated creatininase [2]: favourable effect; deactivation of glucose oxidase (glucose oxidase): not to deactivate; deactivation of lactate oxidase (lactate oxidase): not to deactivate; R = response to creatinine/response to creatine (relative sensor response) (creatininase; 2 μM in Rinse Solution for 5½ days after 2¾ days without, two sensors with nearly no initial excess of creatininase, FIG. 3): approximately 0.8; R = response to creatinine/response to creatine (relative sensor response) (creatininase; 10 μM in Rinse Solutions after 18 days without (R had decreased to 0.9), five sensors with significant initial excess of creatininase, FIG. 4): approximately 1.3; activation of creatininase (creatininase; concentrations of about 0.01 to about 150 μM, without adverse effect on the other enzymes of the dual sensor system): activate creatininase; time for which the sensor response level was maintained (creatininase; continuous treatment at about 2 μM, FIG. 3): at least 5 days; time for which the sensor response level was maintained (creatininase; continuous treatment at about 10 μM, FIG. 4): at least 5 days; deactivation of urease (urease): not to deactivate
7 | [Cl][Mn][Cl] [MnCl2] | – | – | reactivation of metal ion depleted creatininase [3]: reactivated
8 | [Ni+2] [Ni] | reactivated | inhibit slightly | –
9 | [Mg+2] [Mg] | reactivated | inhibit slightly | –
